This note sets out measurements from patent EP4389156A1, “RA[…] LIGAND COMPOUNDS AND PRECURSORS THEREOF” (Technische Universität München, priority 2022, dated 2024).

Data set [1] is described as follows: Lipophilicity (logD7.4), shake-flask method. The format is physicochemical. The note with it: n-octanol/PBS (pH 7.4), n = 8, mean ± SD. As to the method:
The lipophilicity of ^99mTc-labeled PSMA ligands, expressed as distribution coefficient (logD7.4), was determined using the shake-flask method. A solution of approximately 1 MBq of radioligand in 1 mL of a 1:1 mixture of PBS (pH = 7.4) and n-octanol (n = 8) was vortexed vigorously for 3 min. After centrifugation at 9000 rpm for 5 min aliquots of both phases (200 µL n-octanol, 50 µL PBS) were collected and the activity was quantified in a γ-counter. logD7.4 values were calculated as decadic logarithm of the activity concentration ratio between the n-octanol phase and the aqueous phase. Data are given as mean ± standard deviation (SD). Binding to human plasma was determined by incubation of radioligands in human plasma (2 nM concentration, 37 °C for 30 min) and subsequent ultrafiltration (250 µL aliquots, 3200 rpm, 40 min) in Centrifree® ultrafiltration devices (Merck Millipore, Cork, Ireland). The fraction bound to human plasma proteins was calculated as the ratio of unfiltered activity and the total activity in the ultrafiltration device. Measurements were performed in three independent experiments, each with two replicates (n = 6, data are given as mean ± SD). All values were corrected for non-specific binding (control experiments in PBS).

Data set [2] deals with T1, human serum albumin (HSA) (Homo sapiens, UniProt P02768).
T1 construct: purchased Daicel, Tokyo, Japan H13H-2433
T1 sequence (P02768 25-609): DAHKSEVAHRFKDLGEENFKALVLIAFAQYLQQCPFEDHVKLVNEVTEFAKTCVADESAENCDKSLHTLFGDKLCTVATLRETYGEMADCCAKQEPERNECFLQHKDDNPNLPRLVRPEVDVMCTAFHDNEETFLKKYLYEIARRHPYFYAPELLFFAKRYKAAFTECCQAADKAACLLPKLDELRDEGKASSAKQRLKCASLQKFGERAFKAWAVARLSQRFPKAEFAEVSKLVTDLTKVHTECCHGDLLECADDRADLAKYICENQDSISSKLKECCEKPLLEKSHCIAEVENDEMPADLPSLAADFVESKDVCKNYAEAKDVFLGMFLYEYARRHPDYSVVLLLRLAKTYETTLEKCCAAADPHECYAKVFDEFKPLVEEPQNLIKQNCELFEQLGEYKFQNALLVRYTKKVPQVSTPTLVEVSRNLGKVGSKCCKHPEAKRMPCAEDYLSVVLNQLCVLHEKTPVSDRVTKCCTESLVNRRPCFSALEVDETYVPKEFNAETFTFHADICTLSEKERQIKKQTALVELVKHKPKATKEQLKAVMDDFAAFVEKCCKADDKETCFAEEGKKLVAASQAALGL
The data set is described as follows: HSA binding by high performance affinity chromatography (HPAC). The format is in vitro ADME. The note with it: uncomplexed compounds, n = 1. As to the method: HSA binding of the uncomplexed PSMA ligands was determined according to a previously published procedure via HPLC (Valko, K.; Nunhuck, S.; Bevan, C.; Abraham, M. H.; Reynolds, D. P., Fast gradient HPLC method to determine compounds binding to human serum albumin. Relationships with octanol/water and immobilized artificial membrane lipophilicity. J Pharm Sci. 2003, 92, 2236-2248). A Chiralpak HSA column (50 × 3 mm, 5 µm, H13H-2433, Daicel, Tokyo, Japan) was used at a constant flow rate of 0.5 mL/min at rt. Mobile phase A was a freshly prepared 50 mM aqueous solution of NH4OAc (pH 6.9) and mobile phase B was isopropanol (HPLC grade, VWR). The applied gradient for all experiments was 100% A (0 to 3 min), followed by 80% A (3 to 40 min). Prior to the experiment, the column was calibrated using nine reference substances with a HSA binding, known from literature, in the range of 13 to 99% (Valko, K.; Nunhuck, S.; Bevan, C.; Abraham, M. H.; Reynolds, D. P., J Pharm Sci. 2003, 92, 2236-2248; Yamazaki, K.; Kanaoka, M., Computational prediction of the plasma protein-binding percent of diverse pharmaceutical compounds. J Pharm Sci. 2004, 93, 1480-1494). All substances, including the examined PSMA ligands, were dissolved in a 1:1 mixture (v/v) of isopropanol and a 50 mM aqueous solution of NH4OAc (pH 6.9) with a final concentration of 0.5 mg/mL. Non-linear regression was established with the OriginPro 2016G software (Northampton, United States).

Compound `CC(C)(C)[Si](O)(c1ccc(C(=O)NC[C@@H](NC(=O)[C@@H](CCC(=O)O)NC(=O)C(CNCCN)CNCCN)C(=O)N[C@H](CCCCNC(=O)CCC(=O)NCCC[C@@H](NC(=O)CC[C@H](NC(=O)N[C@@H](CCC(=O)O)C(=O)O)C(=O)O)C(=O)O)C(=O)O)cc1)C(C)(C)C.[O]=[99Tc+]=[O]` [[^99mTc]Tc-N4-PSMA-12] had a logD7.4 in data set [1] of -3.35 ± 0.05. In addition, the “HSA-binding (HPAC) (%)” value in data set [2] amounted to 47.7%.
